Data taken from US20050202522A1, “Method of screening for antimicrobial agents” (NATIONAL INSTITUTE OF ADVANCED INDUSTRIAL SCIENCE AND …, priority 2003, published 2005).

Assays:
[1] = tested on: FFRP pot1216151; test: Gel filtration analysis of changes in assemblies of the FFRP induced by amino acids and metabolic intermediates; type: binding, Pyrococcus sp. OT3; conditions: for gel filtration peak that increased: FFRP monomer approximately 100 μM, at least 30 minutes at room temperature, UV 220 nm; for concluded effect on assembling of the protein: gel filtration
Protocol: Changes in assemblies of the FFRP pot1216151 induced by interaction with amino acids and metabolic intermediates were analyzed in solution using gel filtration.
Gel filtration was carried out at a flow rate 1 ml/min, using a matrix (Protein Pak 125, 7.8×300 mm, Waters) and a 50 mM Tris-HCl buffer (pH 7.0) containing 300 mM sodium chloride. Flow of the protein was monitored by measuring the UV absorbance at 220 nm (LC Module I plus system, Waters). The FFRP pot1216151 purified by method 2, i.e., the rigorous method, was dissolved in 50 mM Tris-HCl buffer (pH 7.0) containing 200 mM sodium chloride, and kept at −80° C. until it was diluted by 10-fold with a 50 mM Tris-HCl buffer (pH 7.0) containing 300 mM sodium chloride, and mixed with each potential ligand for at least 30 minutes at room temperature (about 25° C.). In the mixture, the monomer concentration of the FFRP was approximately 100 μM.

[2] = tested on: FFRP (pot1216151); test: Changes in crystal structure (depolarization) of FFRP crystals soaked in amino acid solutions; type: binding, Pyrococcus sp. OT3; conditions: crystals soaked in solution of one amino acid, 10 mM
Protocol: It has been known that the regularity inside a crystal might be affected, if the structure of the protein changes upon interaction with a ligand which is incorporated from outside the crystal, thereby depolarizing the crystal. Crystals of the FFRP (pot1216151) were soaked into solutions, each containing one of twenty amino acids at the same concentration 10 mM. […] With the other amino acids, no change was observed.

[3] = biological target: E. coli Lrp (Escherichia coli, UniProt P0ACJ0); conditions: Marasco et al., 1994; cited from earlier work
E. coli Lrp, sequence (P0ACJ0 2-164): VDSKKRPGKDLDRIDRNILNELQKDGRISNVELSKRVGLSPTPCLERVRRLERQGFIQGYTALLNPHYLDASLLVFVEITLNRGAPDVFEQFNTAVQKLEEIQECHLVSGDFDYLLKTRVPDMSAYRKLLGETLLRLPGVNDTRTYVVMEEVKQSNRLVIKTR

Question: Which “gel filtration peak that increased” value ([1]; metabolic intermediate 10 mM) does the source give for `O=C(O)C(O)COP(=O)(O)O` (stereo not drawn) [3-phosphoglyceric acid] here?
Answer: no significant effect

Question: With `C[C@H](N)C(=O)O` [alanine] as the molecule, how does the “gel filtration peak that increased” value ([1]; amino acid 1 mM) read?
Answer: the fourth peak increased

Question: And the “concluded effect on assembling of the protein” value (shortened to “concluded effect on assembling”) ([1]; amino acid 1 mM)?
Answer: accelerate disassembling of the protein

Question: What does the source list for `N=C(N)NCCC[C@H](N)C(=O)O` [arginine]?
Answer: gel filtration peak that increased ([1]; amino acid 1 mM): the fourth peak increased; concluded effect on assembling of the protein ([1]; amino acid 1 mM): accelerate disassembling of the protein

Question: Which “change of the FFRP crystal (depolarization) on soaking” value (from here on “change of the FFRP crystal”) [2] does the source give for `CC[C@H](C)[C@H](N)C(=O)O` [isoleucine] here?
Answer: the crystals depolarized after several hours

Question: And the “gel filtration peak that increased” value ([1]; amino acid 1 mM)?
Answer: the second peak increased

Question: What about the “concluded effect on assembling” value ([1]; amino acid 1 mM) of the same molecule?
Answer: accelerates assembling of the protein

Question: With `CC(C)C[C@H](N)C(=O)O` [leucine] as the molecule, how does the “change of the FFRP crystal” value [2] read?
Answer: the crystals depolarized after several hours

Question: And the “gel filtration peak that increased” value ([1]; amino acid 1 mM)?
Answer: the fourth peak increased

Question: And the “concluded effect on assembling” value ([1]; amino acid 1 mM)?
Answer: accelerate disassembling of the protein

Question: What about the “effect of leucine on the FFRP assembly” value [3] of the same molecule?
Answer: disassembling these FFRPs

Question: Which “gel filtration peak that increased” value ([1]; metabolic intermediate 10 mM) does the source give for `O=C(O)CC(O)C(=O)O` (stereo not drawn) [malic acid] here?
Answer: the third peak increased

Question: What about the “concluded effect on assembling” value ([1]; metabolic intermediate 10 mM) of the same molecule?
Answer: stabilizing intermediate assemblies

Question: Which “change of the FFRP crystal” value [2] does the source give for `CSCC[C@H](N)C(=O)O` [methionine] here?
Answer: the crystals depolarized after several hours

Question: And the “gel filtration peak that increased” value ([1]; amino acid 1 mM)?
Answer: the fourth peak increased

Question: And the “concluded effect on assembling” value ([1]; amino acid 1 mM)?
Answer: accelerate disassembling of the protein

Question: For `O=C(O)CC(=O)C(=O)O` [oxaloacetic acid], which “gel filtration peak that increased” value ([1]; metabolic intermediate 10 mM) is on record?
Answer: the third peak increased

Question: What about the “concluded effect on assembling” value ([1]; metabolic intermediate 10 mM) of the same molecule?
Answer: stabilizing intermediate assemblies

Question: Which results are given for `N[C@@H](Cc1ccccc1)C(=O)O` [phenylalanine]?
Answer: gel filtration peak that increased ([1]; amino acid 1 mM): the fourth peak increased; concluded effect on assembling of the protein ([1]; amino acid 1 mM): accelerate disassembling of the protein

Question: With `CC(=O)C(=O)O` [pyruvic acid] as the molecule, how does the “gel filtration peak that increased” value ([1]; metabolic intermediate 10 mM) read?
Answer: no significant effect

Question: Which results are given for `C[C@@H](O)[C@H](N)C(=O)O` [threonine]?
Answer: gel filtration peak that increased ([1]; amino acid 1 mM): the fourth peak increased; concluded effect on assembling of the protein ([1]; amino acid 1 mM): accelerate disassembling of the protein

Question: Which “change of the FFRP crystal” value [2] does the source give for `CC(C)[C@H](N)C(=O)O` [valine] here?
Answer: the crystals depolarized after several hours

Question: What about the “gel filtration peak that increased” value ([1]; amino acid 1 mM) of the same molecule?
Answer: the third peak increased

Question: What about the “concluded effect on assembling” value ([1]; amino acid 1 mM) of the same molecule?
Answer: stabilizing intermediate assemblies
